Measured values from ChEMBL document CHEMBL1141941, “Biaryl diamides as potent melanin concentrating hormone receptor 1 antagonists” (Bioorg Med Chem Lett, 2005).

What was measured:
[1] = molecular target: Melanin-concentrating hormone receptor 2 (Homo sapiens, UniProt Q969V1); test: Antagonist activity against human MCH2 receptor; assay type: functional
[2] = molecular target: Melanin-concentrating hormone receptor 1 (Homo sapiens, UniProt Q99705); test: Antagonist activity against human MCH1 receptor; assay type: functional
Sequence of Melanin-concentrating hormone receptor 1 (Q99705 whole entry): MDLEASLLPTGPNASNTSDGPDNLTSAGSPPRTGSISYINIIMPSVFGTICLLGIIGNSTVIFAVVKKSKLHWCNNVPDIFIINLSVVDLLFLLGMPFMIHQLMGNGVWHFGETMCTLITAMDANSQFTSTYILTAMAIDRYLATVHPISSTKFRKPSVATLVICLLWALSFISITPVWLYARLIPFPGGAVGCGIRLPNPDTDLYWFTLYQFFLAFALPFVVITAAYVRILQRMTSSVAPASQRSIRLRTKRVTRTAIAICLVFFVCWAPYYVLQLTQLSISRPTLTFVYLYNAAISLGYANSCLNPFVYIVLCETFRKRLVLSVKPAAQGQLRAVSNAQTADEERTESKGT

Sequence of Melanin-concentrating hormone receptor 2 (Q969V1 whole entry): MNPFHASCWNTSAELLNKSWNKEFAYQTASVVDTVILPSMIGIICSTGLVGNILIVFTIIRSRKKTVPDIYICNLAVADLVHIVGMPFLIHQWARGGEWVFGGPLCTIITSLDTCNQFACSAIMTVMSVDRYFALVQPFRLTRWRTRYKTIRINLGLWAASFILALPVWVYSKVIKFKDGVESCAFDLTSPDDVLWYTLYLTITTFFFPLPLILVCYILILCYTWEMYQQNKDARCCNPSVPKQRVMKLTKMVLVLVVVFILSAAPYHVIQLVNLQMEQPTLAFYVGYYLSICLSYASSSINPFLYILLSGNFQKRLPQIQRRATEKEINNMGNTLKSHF

SMILES | Ki [1] | Ki [2]
N#Cc1cccc(-c2ccc(CN(CC(=O)Nc3cc(Cl)cc(Cl)c3)C(=O)CN3CC[C@H](O)C3)cc2)c1 | > 3000 nM | 
N#Cc1cccc(-c2ccc(CN(CCCN3CCCC3)C(=O)Nc3ccc(F)c(C(F)(F)F)c3)cc2)c1 | > 3000 nM | 70 nM
N#Cc1cccc(-c2ccc(CN(CCCN3CCCC3)C(=O)Nc3ccc(F)c(Cl)c3)cc2)c1 | > 3000 nM | 48 nM
N#Cc1cccc(-c2ccc(CCN(CC(=O)Nc3cc(Cl)cc(Cl)c3)C(=O)CCN3CC[C@H](O)C3)cc2)c1 | > 3000 nM | 
N#Cc1cccc(-c2ccc(CN(CC(=O)Nc3cc(Cl)cc(Cl)c3)C(=O)CCN3CCCC3)cc2)c1 | > 3000 nM | 
CC(C)(c1ccc(-c2cccc(C#N)c2)cc1)N(CC(=O)Nc1cc(Cl)cc(Cl)c1)C(=O)CN1CCCC1 | > 3000 nM | 131 nM
C[C@H](c1ccc(-c2cccc(C#N)c2)cc1)N(CC(=O)Nc1cc(Cl)cc(Cl)c1)C(=O)CCN1CC[C@H](O)C1 | > 3000 nM | 23 nM
N#Cc1cccc(-c2ccc(CN(CCN3CCCC3)C(=O)Nc3ccc(F)c(C(F)(F)F)c3)cc2)c1 | > 3000 nM | 159 nM
N#Cc1cccc(-c2ccc(CCN(CC(=O)Nc3cc(Cl)cc(Cl)c3)C(=O)CCN3CCCC3)cc2)c1 | > 3000 nM | 
C[C@H](c1ccc(-c2cccc(C#N)c2)cc1)N(CC(=O)Nc1cc(Cl)cc(Cl)c1)C(=O)CCCN1CC[C@H](O)C1 | > 3000 nM | 76 nM
N#Cc1cccc(-c2ccc(CCN(CC(=O)Nc3cc(Cl)cc(Cl)c3)C(=O)CN3CC[C@H](O)C3)cc2)c1 | > 3000 nM | 
CC(=O)N[C@@H]1CCN(CC(=O)N(CCc2ccc(-c3cccc(C#N)c3)cc2)CC(=O)Nc2cc(Cl)cc(Cl)c2)C1 | > 3000 nM | 
N#Cc1cccc(-c2ccc(CN(CCCN3CCCC3)C(=O)Nc3cc(Cl)cc(Cl)c3)cc2)c1 | > 3000 nM | 48 nM
N#Cc1cccc(-c2ccc(CN(CC(=O)Nc3cc(Cl)cc(Cl)c3)C(=O)CN3CC[C@@H](O)C3)cc2)c1 | > 3000 nM | 

Continued, values first:

Ki [1] | Ki [2] | SMILES
> 3000 nM |  | N#Cc1cccc(-c2ccc(CN(CC(=O)Nc3cc(Cl)cc(Cl)c3)C(=O)CN3CCCC3)cc2)c1
> 3000 nM | 16 nM | C[C@@H](c1ccc(-c2cccc(C#N)c2)cc1)N(CC(=O)Nc1cc(Cl)cc(Cl)c1)C(=O)CN1CC[C@H](O)C1
> 3000 nM | 31 nM | C[C@H](c1ccc(-c2cccc(C#N)c2)cc1)N(CC(=O)Nc1cc(Cl)cc(Cl)c1)C(=O)CN1CC[C@H](O)C1
> 3000 nM | 151 nM | N#Cc1cccc(-c2ccc(CN(CCN3CCCC3)C(=O)Nc3cc(Cl)cc(Cl)c3)cc2)c1
> 3000 nM |  | N#Cc1cccc(-c2ccc(CCN(CC(=O)Nc3cc(Cl)cc(Cl)c3)C(=O)CN3CCCC3)cc2)c1
> 3000 nM |  | N#Cc1cccc(-c2ccc(CCN(CC(=O)Nc3cc(Cl)cc(Cl)c3)C(=O)CN3CC[C@@H](O)C3)cc2)c1
> 3000 nM | 18 nM | C[C@@H](c1ccc(-c2cccc(C#N)c2)cc1)N(CC(=O)Nc1cc(Cl)cc(Cl)c1)C(=O)CCN1CC[C@H](O)C1
> 3000 nM |  | N#Cc1cccc(-c2ccc(CCN(CC(=O)Nc3cc(Cl)cc(Cl)c3)C(=O)CCN3CC[C@@H](O)C3)cc2)c1
> 3000 nM | 287 nM | N#Cc1cccc(-c2ccc(CN(CCN3CCCC3)C(=O)Nc3ccc(F)c(Cl)c3)cc2)c1
